According to patent US5834452A, “1- or 6-hydroxylated steroids” (Roussel Uclaf, priority 1996, dated 1998):

Assays:
[1] = target: T1, Human androgen receptor (HAR) (Homo sapiens, UniProt P10275); experiment: Relative bond affinity (RBA), recombinant human androgen receptor, charcoal dextran technique; type: binding; conditions: 24 h at 0° C., Testosterone = 100
T1 construct: made in house; host or cells: SF9 insect cells (baculovirus), lysate supernatant
T1 sequence (P10275 1-920): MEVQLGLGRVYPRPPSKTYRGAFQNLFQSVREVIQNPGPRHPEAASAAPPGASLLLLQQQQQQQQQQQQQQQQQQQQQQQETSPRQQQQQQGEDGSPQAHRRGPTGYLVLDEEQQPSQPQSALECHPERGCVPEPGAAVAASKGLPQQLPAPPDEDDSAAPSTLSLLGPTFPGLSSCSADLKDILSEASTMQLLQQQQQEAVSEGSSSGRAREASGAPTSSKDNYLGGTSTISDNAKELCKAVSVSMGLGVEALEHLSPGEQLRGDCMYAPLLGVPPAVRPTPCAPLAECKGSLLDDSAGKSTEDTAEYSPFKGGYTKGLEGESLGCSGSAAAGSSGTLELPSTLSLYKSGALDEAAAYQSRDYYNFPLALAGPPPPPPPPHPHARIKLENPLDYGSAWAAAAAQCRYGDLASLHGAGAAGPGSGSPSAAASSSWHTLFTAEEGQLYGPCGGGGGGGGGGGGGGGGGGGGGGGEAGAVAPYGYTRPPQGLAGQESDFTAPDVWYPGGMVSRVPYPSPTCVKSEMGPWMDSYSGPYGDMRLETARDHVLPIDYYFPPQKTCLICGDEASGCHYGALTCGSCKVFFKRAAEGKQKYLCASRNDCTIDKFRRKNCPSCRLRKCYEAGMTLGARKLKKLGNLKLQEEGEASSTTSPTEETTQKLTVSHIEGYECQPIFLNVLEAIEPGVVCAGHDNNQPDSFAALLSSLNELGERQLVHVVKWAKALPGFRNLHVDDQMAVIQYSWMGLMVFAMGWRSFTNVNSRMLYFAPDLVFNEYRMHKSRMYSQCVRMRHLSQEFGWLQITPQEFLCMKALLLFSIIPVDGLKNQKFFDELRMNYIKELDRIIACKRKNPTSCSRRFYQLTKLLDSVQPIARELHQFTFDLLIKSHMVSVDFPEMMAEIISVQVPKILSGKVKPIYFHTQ
Experimental: (§1) The human recombinant receptor (HGR, HPR, HAR, HMR, HER) was used.
Human androgen receptor (HAR)
(§2) A supernatant of SF9 cells containing the recombinant human androgen receptor was obtained by the process described above for the progestogen receptor using the cDNA fragment containing the region coding for the human androgen receptor. The cells obtained were lysed in the lysis buffer (3). The supernatant was incubated at 0° C. for an incubation time of 24 hours with a constant concentration (T) of tritiated testosterone in the presence of increasing concentrations of either unlabelled testosterone (0 to 1000×10^-9 M), or the unlabelled product to be tested (1 to 25000×10^-9 M). The concentration of bound tritiated testosterone (B) was then measured in each incubate using the charcoal dextran adsorption technique.
(§3) Calculation of the relative bond affinity (RBA).
(§4) The following two curves were drawn: the percentage of bound tritiated hormone B/BO as a function of the logarithm of the concentration of unlabelled reference hormone or as a function of the logarithm of the concentration of unlabelled test product. The straight line of the following equation was determined: […]
(§5) The relative bond affinity (RBA) of the test product was determined by the equation: […]

[2] = target: T2, Human mineralocorticoid receptor (HMR) (Homo sapiens, UniProt P08235); experiment: Relative bond affinity (RBA), recombinant human mineralocorticoid receptor, charcoal dextran technique; type: binding; conditions: 24 h at 0° C.; Aldosterone = 100
T2 construct: made in house; host or cells: SF9 insect cells (baculovirus), lysate supernatant
T2 sequence (P08235 1-984): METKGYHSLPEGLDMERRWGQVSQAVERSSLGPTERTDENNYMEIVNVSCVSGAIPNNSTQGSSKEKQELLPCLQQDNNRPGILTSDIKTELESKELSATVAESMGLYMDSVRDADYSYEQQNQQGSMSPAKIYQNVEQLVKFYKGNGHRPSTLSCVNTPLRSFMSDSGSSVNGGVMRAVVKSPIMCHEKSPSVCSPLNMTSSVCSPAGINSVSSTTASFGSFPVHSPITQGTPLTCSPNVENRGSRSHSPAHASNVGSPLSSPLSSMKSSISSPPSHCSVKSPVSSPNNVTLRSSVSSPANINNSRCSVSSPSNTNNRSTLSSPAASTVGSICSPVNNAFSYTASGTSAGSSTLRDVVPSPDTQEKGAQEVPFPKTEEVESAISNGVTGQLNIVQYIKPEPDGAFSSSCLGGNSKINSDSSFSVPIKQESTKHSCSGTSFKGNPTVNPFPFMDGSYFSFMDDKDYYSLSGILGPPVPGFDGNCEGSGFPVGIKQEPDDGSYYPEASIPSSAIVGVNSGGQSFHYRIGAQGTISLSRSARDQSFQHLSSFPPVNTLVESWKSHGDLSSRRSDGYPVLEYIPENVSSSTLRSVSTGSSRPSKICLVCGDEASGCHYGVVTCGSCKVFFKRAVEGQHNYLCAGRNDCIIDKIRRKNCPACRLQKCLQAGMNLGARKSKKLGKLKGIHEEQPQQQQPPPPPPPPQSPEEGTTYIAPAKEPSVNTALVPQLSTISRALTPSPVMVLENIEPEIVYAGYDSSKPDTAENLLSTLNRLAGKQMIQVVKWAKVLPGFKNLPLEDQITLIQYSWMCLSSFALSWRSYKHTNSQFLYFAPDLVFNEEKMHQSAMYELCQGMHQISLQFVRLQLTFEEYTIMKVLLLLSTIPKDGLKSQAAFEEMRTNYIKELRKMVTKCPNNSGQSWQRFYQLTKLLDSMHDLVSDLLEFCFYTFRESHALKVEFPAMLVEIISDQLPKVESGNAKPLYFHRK
Source text: as §1
Human mineralocorticoid receptor (HMR):
as §2, with “mineralocorticoid” for “androgen”, “according to” for “by”, “fragment described by Baulieu et al (Proc. Natl. Acad. Sci., (1991), Vol. 88, p. 10681-10685)” for “fragment”, “(4).” for “(3).”, “for” for “for an incubation time of”, “aldosterone” for “testosterone”
as §3, §4, §5

[3] = system: endometrial proliferation (uterine lace); experiment: Progestomimetic activity: endometrial transformation in the rabbit (Clauberg-McPhail test); type: in vivo; set-up: key to Average uterine lace (McPhail Index): McPhail scale 0–4 with 0.5 steps (endometrial proliferation); conditions: for Progestomimetic activity: rabbit

| Structure (SMILES) | RBA, Human androgen receptor [1] | RBA, Human androgen receptor ([1]; listed as product B) | RBA, Human mineralocorticoid receptor [2] | Progestomimetic activity ([3]; 3 μg/kg percutaneously) | Average uterine lace (McPhail Index) ([3]; rabbit, 0,003 mg/kg, s/c, day 8 to day 11) | Progestomimetic activity ([3]; 3 and 10 μg/kg orally) |
| --- | --- | --- | --- | --- | --- | --- |
| C[C@H](O)C(=O)[C@@]1(C)CC[C@H]2[C@@H]3C[C@@H](O)C4=CC(=O)CCC4=C3CC[C@@]21C [Product B, [6β, 17β-(S)]-6-hydroxy-17-(2-hydroxy-1-oxopropyl)-17-methyl-Δ^4,9-estradiene-3-one] | 0 | no or negligible RBA's | no or negligible RBA's |  |  |  |
| C[C@H](O)C(=O)[C@@]1(C)CC[C@H]2[C@@H]3CCC4=CC(=O)CCC4=C3CC[C@@]21C [Trimegestone, [17β-(S)]-17-(2-hydroxy-1-oxopropyl)-17-methyl-Δ^4,9-estradiene-3-one, reference compound] |  |  |  | strong activity | 3,8 | strong activity |
